Source: patent publication US20130109682A1, “CYCLIC ETHER COMPOUNDS USEFUL AS KINASE INHIBITORS” (NOVARTIS AG, priority 2010, published 2013)

Assays:
PIM1 = PIM1 (Homo sapiens, UniProt P11309); assay: Pim 1 AlphaScreen assay (high ATP); type: biochemical; details: read-out: Pim1 IC50
Experimental: (§1) Pim1, Pim2, Pim3 AlphaScreen Assay Pim 1, Pim 2 & Pim 3 AlphaScreen assays using high ATP (11-125×ATP Km) were used to determine the biochemical activity of the inhibitors. The activity of Pim 1, Pim 2, & Pim 3 is measured using a homogeneous bead based system quantifying the amount of phosphorylated peptide substrate resulting from kinase-catalyzed phosphoryl transfer to a peptide substrate. Compounds to be tested are dissolved in 100% DMSO and directly distributed to a white 384-well plate at […] per well. To start the reaction, 5 μl of 100 nM Bad peptide (Biotin-AGAGRSRHSSYPAGT —OH) and ATP (concentrations described below) in assay buffer (50 mM Hepes, pH=7.5, 5 mM MgCl2, 0.05% BSA, 0.01% Tween-20, 1 mM DTT) is added to each well. This is followed by the addition of 5 μl/well of Pim 1, Pim 2 or Pim 3 kinase in assay buffer (concentrations described below). Final assay concentrations (described below) are in 2.5% DMSO. The reactions are performed for ˜2 hours, then stopped by the addition of 10 μl of 0.75 μg/ml anti-phospho Ser/Thr antibody (Cell Signaling), 10 μg/ml Protein A AlphaScreen beads (Perkin Elmer), and 10 μg/ml streptavidin coated AlphaScreen beads in stop/detection buffer (50 mM EDTA, 95 mM Tris, pH=7.5, 0.01% Tween-20). The stopped reactions are incubated overnight in the dark. The phosphorylated peptide is detected via an […] initiated chemiluminescence/fluorescence cascade using the Envision plate reader (Perkin Elmer).
(§2) IC50, the half maximal inhibitory concentration, represents the concentration of a test compound that is required for 50% inhibition of its target in vitro under the described assay conditions.

PIM3 = PIM3 (Homo sapiens, UniProt Q86V86); assay: Pim 3 AlphaScreen assay (high ATP); type: biochemical; details: read-out: Pim3 IC50
Experimental: as §1, §2

GSK3β = GSK3β (Homo sapiens, UniProt P49841); assay: GSK3β ATP depletion assay; type: biochemical; details: ATP depletion assay; read-out: GSK3b IC50
Sequence of GSK3β (P49841 whole entry, species assumed): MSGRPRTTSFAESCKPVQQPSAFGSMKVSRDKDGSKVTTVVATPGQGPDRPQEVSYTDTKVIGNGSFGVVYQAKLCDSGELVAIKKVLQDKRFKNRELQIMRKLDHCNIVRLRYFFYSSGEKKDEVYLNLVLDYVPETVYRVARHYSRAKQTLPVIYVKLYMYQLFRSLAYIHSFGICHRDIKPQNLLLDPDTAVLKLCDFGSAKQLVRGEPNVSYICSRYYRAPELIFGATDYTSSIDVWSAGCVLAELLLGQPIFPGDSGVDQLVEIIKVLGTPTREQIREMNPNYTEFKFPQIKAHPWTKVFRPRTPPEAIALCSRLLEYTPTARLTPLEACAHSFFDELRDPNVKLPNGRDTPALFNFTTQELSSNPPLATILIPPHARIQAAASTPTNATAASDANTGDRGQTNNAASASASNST
Outline: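 Kinase activity is read as ATP consumption: luciferase luminescence reports the ATP remaining once roughly half of the 2 μM ATP is used. Reaction mix: 5 nM GSK3β, 10 μM b-CREB peptide, 50 mM Tris pH 7.5, 15 mM MgCl2, 1 mM DTT, 0.1% BSA, 2.5% DMSO. Enzyme and peptide are preincubated 15 min before ATP is added.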

PIM2 = PIM2 (Homo sapiens, UniProt Q9P1W9); assay: Pim 2 AlphaScreen assay (high ATP); type: biochemical; details: read-out: Pim2 IC50
Sequence of PIM2 (Q9P1W9 whole entry): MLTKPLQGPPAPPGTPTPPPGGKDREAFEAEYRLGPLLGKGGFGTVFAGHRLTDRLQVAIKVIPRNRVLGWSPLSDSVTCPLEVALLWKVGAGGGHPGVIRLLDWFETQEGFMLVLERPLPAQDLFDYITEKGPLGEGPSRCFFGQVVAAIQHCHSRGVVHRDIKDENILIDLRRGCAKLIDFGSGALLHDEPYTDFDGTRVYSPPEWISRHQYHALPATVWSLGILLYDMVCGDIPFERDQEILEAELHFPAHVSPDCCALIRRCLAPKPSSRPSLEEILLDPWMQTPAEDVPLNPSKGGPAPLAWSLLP
Experimental: as §1, §2

[1] = system: KMS11 (human myeloma cell line); assay: Cell proliferation assay (CellTiter-Glo), KMS11; type: cell-based; details: Homo sapiens, KMS-11; KMS11 cells, cell proliferation; read-out: KMS11-Luc EC50
Outline: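 EC50 derived from CellTiter-Glo luminescence after 3-day exposure at 37° C. Compound was diluted to 2× in medium and added to an equal volume of cells. KMS11 myeloma cells were plated on assay day at 2000/well in IMDM with 10% FBS and sodium pyruvate.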

Sequence of PIM1 (P11309 whole entry): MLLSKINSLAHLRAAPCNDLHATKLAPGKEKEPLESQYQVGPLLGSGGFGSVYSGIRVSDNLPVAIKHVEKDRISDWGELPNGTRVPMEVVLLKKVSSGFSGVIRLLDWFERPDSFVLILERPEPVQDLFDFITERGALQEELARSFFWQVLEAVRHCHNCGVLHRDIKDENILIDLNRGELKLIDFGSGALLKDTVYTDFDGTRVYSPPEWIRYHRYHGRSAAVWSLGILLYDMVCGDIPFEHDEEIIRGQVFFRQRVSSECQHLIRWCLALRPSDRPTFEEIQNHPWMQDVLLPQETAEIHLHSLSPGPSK

Structure (SMILES) | IC50 (PIM1) [nM] | IC50 (PIM3) [nM] | IC50 (GSK3β) [nM] | IC50 (PIM2) [nM] | EC50 [1] [nM]
N[C@@H]1C[C@H](c2ccncc2NC(=O)c2ccnc(-c3c(F)cccc3F)n2)O[C@@H]2CCCC[C@]12O [Example 237, N-(4-((2R,4R,4aS,8aR)-4-amino-4a-hydroxyoctahydro-2H-chromen-2-yl)pyridin-3-yl)-2-(2,6-difluorophenyl)pyrimidine-4-carboxamide] | 3.37 | 24 | 13 | 70 | 
C[C@@]1(O)[C@@H](N)C[C@@H](c2ccncc2NC(=O)c2ccc(F)c(-c3c(F)cccc3F)n2)O[C@H]1C1CC1 [Example 257, N-(4-((2S,4S,5R,6S)-4-amino-6-cyclopropyl-5-hydroxy-5-methyltetrahydro-2H-pyran-2-yl)pyridin-3-yl)-6-(2,6-difluorophenyl)-5-fluoropicolinamide] | 1.88 | 35.9 | 20000 | 173 | 
N[C@H]1C[C@@H](c2ccncc2NC(=O)c2ccc(F)c(-c3c(F)cccc3F)n2)O[C@H]2CCC[C@H]21 [Example 223, N-(4-((2S,4S,4aS,7aS)-4-aminooctahydrocyclopenta[b]pyran-2-yl)pyridin-3-yl)-6-(2,6-difluorophenyl)-5-fluoropicolinamide] | 4.62 | 201 | 9830 |  | 4380
COc1ccc(F)c(-c2nc(C(=O)Nc3cnccc3[C@H]3C[C@@H](N)[C@](C)(O)[C@@H](C)O3)ccc2F)c1F [Example 244, N-(4-((2R,4R,5S,6R)-4-amino-5-hydroxy-5,6-dimethyltetrahydro-2H-pyran-2-yl)pyridin-3-yl)-6-(2,6-difluoro-3-methoxyphenyl)-5-fluoropicolinamide] | 0.08 | 1.2 | 809 | 12.2 | 
C[C@H]1O[C@@H](c2ccncc2NC(=O)c2csc(-c3c(F)cccc3F)n2)C[C@@H](N)[C@]1(C)O [Example 221, N-(4-((2R,4R,5S,6R)-4-amino-5-hydroxy-5,6-dimethyltetrahydro-2H-pyran-2-yl)pyridin-3-yl)-2-(2,6-difluorophenyl)thiazole-4-carboxamide] | 0.64 | 18.7 | 74.6 |  | 7720
C[C@]1(O)[C@H](O)C[C@H](c2ccncc2NC(=O)c2nc(-c3c(F)cccc3F)ncc2N)O[C@@H]1C1CC1 [Example 246, 5-amino-N-(4-((2R,4R,5S,6R)-6-cyclopropyl-4,5-dihydroxy-5-methyltetrahydro-2H-pyran-2-yl)pyridin-3-yl)-2-(2,6-difluorophenyl)pyrimidine-4-carboxamide] | 71.2 | 970 | 983 | 818 | 
CC(C)[C@H]1O[C@@H](c2ccncc2NC(=O)c2ccc(F)c(-c3c(F)cccc3F)n2)C[C@@H](N)[C@@H]1O [Example 271, N-(4-((2R,4R,5S,6R)-4-amino-5-hydroxy-6-isopropyltetrahydro-2H-pyran-2-yl)pyridin-3-yl)-6-(2,6-difluorophenyl)-5-fluoropicolinamide] | 0.15 | 2.1 | 2750 | 4.3 | 
Nc1cnc(-c2c(F)cccc2F)nc1C(=O)Nc1cnccc1[C@H]1C[C@@H](O)[C@H](O)C2(CC2)O1 [Example 252, 5-amino-2-(2,6-difluorophenyl)-N-(4-((5R,7R,8S)-7,8-dihydroxy-4-oxaspiro[2.5]octan-5-yl)pyridin-3-yl)pyrimidine-4-carboxamide] | 20.3 | 252 | 572 | 848 | 
C[C@@H]1O[C@H](c2ccncc2NC(=O)c2csc(-c3c(F)cccc3F)n2)C[C@H](N)[C@@]1(C)O [Example 222, N-(4-((2S,4S,5R,6S)-4-amino-5-hydroxy-5,6-dimethyltetrahydro-2H-pyran-2-yl)pyridin-3-yl)-2-(2,6-difluorophenyl)thiazole-4-carboxamide] | 10.3 | 189 | 3060 |  | > 10000
Nc1cnc(-c2c(F)cccc2F)nc1C(=O)Nc1cnccc1[C@@H]1C[C@H](O)[C@@H](O)C2(CC2)O1 [Example 251, 5-amino-2-(2,6-difluorophenyl)-N-(4-((5S,7S,8R)-7,8-dihydroxy-4-oxaspiro[2.5]octan-5-yl)pyridin-3-yl)pyrimidine-4-carboxamide] | 90.7 | 1320 | 1110 | 9100 | 
CC[C@@H]1O[C@H](c2ccncc2NC(=O)c2ccc(F)c(-c3c(F)cccc3F)n2)C[C@H](N)[C@@]1(C)O (stereo in doubt) [Example 276, N-(4-((2S,4S,5R,6S)-4-amino-6-ethyl-5-hydroxy-5-methyltetrahydro-2H-pyran-2-yl)pyridin-3-yl)-6-(2,6-difluorophenyl)-5-fluoropicolinamide] | 0.47 | 4.6 | 20900 | 17.4 | 
COc1cc(F)c(-c2nc(C(=O)Nc3cnccc3[C@H]3C[C@@H](N)[C@](C)(O)[C@@H](C4CC4)O3)ccc2F)c(F)c1 [Example 265, N-(4-((2R,4R,5S,6R)-4-amino-6-cyclopropyl-5-hydroxy-5-methyltetrahydro-2H-pyran-2-yl)pyridin-3-yl)-6-(2,6-difluoro-4-methoxyphenyl)-5-fluoropicolinamide] | 0.13 | 2.3 | 1050 | 9.6 | 
Nc1cc(F)c(-c2c(F)cccc2F)nc1C(=O)Nc1cnccc1[C@H]1C[C@@H](N)[C@@]2(O)CCC[C@H]2O1 [Example 216, 3-amino-N-(4-((2R,4R,4aS,7aR)-4-amino-4a-hydroxyoctahydrocyclopenta[b]pyran-2-yl)pyridin-3-yl)-6-(2,6-difluorophenyl)-5-fluoropicolinamide] | 0.14 | 1.7 | 946 |  | 530
O=C(Nc1cnccc1[C@H]1C[C@@H](O)[C@H](O)C2(CC2)O1)c1ccc(F)c(-c2c(F)cccc2F)n1 [Example 253, 6-(2,6-difluorophenyl)-N-(4-((5R,7R,8S)-7,8-dihydroxy-4-oxaspiro[2.5]octan-5-yl)pyridin-3-yl)-5-fluoropicolinamide] | 0.99 | 12.6 | 273 | 79.5 | 
N[C@@H]1C[C@H](c2ccncc2NC(=O)c2ccc(F)c(-c3c(F)cccc3F)n2)O[C@@H]2CCC(=O)N[C@@H]12 [Example 241, N-(4-((2R,4R,4aS,8aR)-4-amino-6-oxooctahydro-2H-pyrano[3,2-b]pyridin-2-yl)pyridin-3-yl)-6-(2,6-difluorophenyl)-5-fluoropicolinamide] | 20.8 | 132 | 6300 | 393 | 
N[C@@H]1C[C@H](c2ccncc2NC(=O)c2csc(-c3c(F)cccc3F)n2)O[C@@H]2CCC[C@H]12 [Example 231, N-(4-((2R,4R,4aR,7aR)-4-aminooctahydrocyclopenta[b]pyran-2-yl)pyridin-3-yl)-2-(2,6-difluorophenyl)thiazole-4-carboxamide] | 0.24 | 14.6 | 53.2 |  | 5820
COc1cc(NC(=O)c2ccc(F)c(-c3c(F)cccc3F)n2)c([C@H]2C[C@@H](O)[C@H](O)[C@@H](CO)O2)cn1 [Example 225, 6-(2,6-difluorophenyl)-N-(5-((2R,4R,5S,6R)-4,5-dihydroxy-6-(hydroxymethyl)tetrahydro-2H-pyran-2-yl)-2-methoxypyridin-4-yl)-5-fluoropicolinamide] | 14600 | > 25000 | > 25000 |  | > 10000
O=C(Nc1cc(=O)[nH]cc1[C@H]1C[C@@H](O)[C@H](O)[C@@H](CO)O1)c1ccc(F)c(-c2c(F)cccc2F)n1 [Example 226, 6-(2,6-difluorophenyl)-N-(5-((2R,4R,5S,6R)-4,5-dihydroxy-6-(hydroxymethyl)tetrahydro-2H-pyran-2-yl)-2-oxo-1,2-dihydropyridin-4-yl)-5-fluoropicolinamide] | 1430 | 23500 | 10600 |  | > 10000
